Test results: patent US12552824B2, “C-mannoside compounds useful for the treatment of urinary tract infections” (GLAXOSMITHKLINE INTELLECTUAL PROPERTY DEVELOPMENT LIMITED, priority 2018, dated 2026)

Molecular target: T1, FimH (Escherichia coli, UniProt Q1R2J4)
T1 construct: endogenous in cells; host or cells: E. coli UTI89 whole bacteria, agglutinating guinea pig red blood cells
Assay type: cell-based
Conditions: concentration reducing bacterial agglutination of guinea pig red blood cells by greater than 90%; UTI89 bacteria
Protocol: Hemagglutination Inhibition Assay (HAI)
The hemagglutination inhibition (HAI) assay was performed with UTI89 bacteria and guinea pig red blood cells, as previously described (S. J. Hultgren, W. R. Schwan, A. J. Schaeffer, J. L. Duncan Infect. Immun. 1986, 54, 613-620 and Jarvis, C.; Han, Z.; Kalas, V.; Klein, R.; Pinkner, J. S.; Ford, B.; Binkley, J.; Cusumano, C. K.; Cusumano, Z.; Mydock-McGrane, L.; Hultgren, S. J.; Janetka, J. W., ChemMedChem 2016, 11, 367-373).
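Also: concentration in nM.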

SMILES | HAI titer EC > 90
Cc1cc(-c2cc(F)c(C(C)O)c(F)c2)ccc1C(O)C1OC(CO)C(O)C(O)C1O (mixture of isomers) [Example 95] | “++++” (<50 “++++”)
Cc1cc(-c2cc(F)c(C(C)O)c(F)c2)ccc1[C@@H](O)[C@H]1O[C@H](CO)[C@@H](O)[C@H](O)[C@@H]1O (single isomer, unassigned) [Example 107] | “++++” (<50 “++++”)
Cc1cc(-c2cc(F)c(C(C)O)c(F)c2)ccc1[C@@H](O)[C@H]1O[C@H](CO)[C@@H](O)[C@H](O)[C@@H]1O (single isomer, unassigned) [Example 108] | “++++” (<50 “++++”)
Cc1cc(-c2cc(Cl)ccc2OC(C)C)ccc1[C@@H](O)[C@H]1O[C@H](CO)[C@@H](O)[C@H](O)[C@@H]1O [Example 10] | “++++” (<50 “++++”)
Cc1cc(-c2cc(C)c(Cl)c(C)c2)ccc1[C@@H](O)[C@H]1O[C@H](CO)[C@@H](O)[C@H](O)[C@@H]1O [Example 12] | “+++” (50-200 “+++”)
Cc1cc(-c2ccc([C@@H](O)[C@H]3O[C@H](CO)[C@@H](O)[C@H](O)[C@@H]3O)c(C)c2)cc(C(C)(C)C)c1 [Example 14] | “+++” (50-200 “+++”)
Cc1cc(-c2cc(F)ccc2F)ccc1[C@@H](O)[C@H]1O[C@H](CO)[C@@H](O)[C@H](O)[C@@H]1O [Example 17] | “+++” (50-200 “+++”)
Cc1cc(-c2cccc(F)c2F)ccc1[C@@H](O)[C@H]1O[C@H](CO)[C@@H](O)[C@H](O)[C@@H]1O [Example 18] | “+++” (50-200 “+++”)
Cc1cc(-c2cc(Cl)c(Cl)cc2O)ccc1[C@@H](O)[C@H]1O[C@H](CO)[C@@H](O)[C@H](O)[C@@H]1O [Example 19] | “++++” (<50 “++++”)
COc1cc(Cl)c(Cl)cc1-c1ccc([C@@H](O)[C@H]2O[C@H](CO)[C@@H](O)[C@H](O)[C@@H]2O)c(C)c1 [Example 20] | “++++” (<50 “++++”)
Cc1cc(-c2cc(F)cc(Cl)c2)ccc1[C@@H](O)[C@H]1O[C@H](CO)[C@@H](O)[C@H](O)[C@@H]1O [Example 22] | “++++” (<50 “++++”)
Cc1cc(-c2ccc(F)c(F)c2)ccc1[C@@H](O)[C@H]1O[C@H](CO)[C@@H](O)[C@H](O)[C@@H]1O [Example 23] | “+++” (50-200 “+++”)
Cc1cc(-c2ccc(F)c(C(F)(F)F)c2)ccc1[C@@H](O)[C@H]1O[C@H](CO)[C@@H](O)[C@H](O)[C@@H]1O [Example 25] | “++++” (<50 “++++”)
Cc1cc(-c2cc(Cl)cc(C(F)(F)F)c2)ccc1[C@@H](O)[C@H]1O[C@H](CO)[C@@H](O)[C@H](O)[C@@H]1O [Example 26] | “++++” (<50 “++++”)
COc1cc(-c2ccc([C@@H](O)[C@H]3O[C@H](CO)[C@@H](O)[C@H](O)[C@@H]3O)c(C)c2)ccc1F [Example 27] | “+++” (50-200 “+++”)
Cc1cc(-c2ccc(OC(F)(F)F)c(F)c2)ccc1[C@@H](O)[C@H]1O[C@H](CO)[C@@H](O)[C@H](O)[C@@H]1O [Example 28] | “+” (>1000 “+”)
OC[C@H]1O[C@H]([C@H](O)c2ccc(-c3cc(F)cc(F)c3)cc2Cl)[C@@H](O)[C@@H](O)[C@@H]1O [Example 29] | “+++” (50-200 “+++”)
Cc1cc(-c2ccc(Cl)c(C(F)(F)F)c2)ccc1[C@@H](O)[C@H]1O[C@H](CO)[C@@H](O)[C@H](O)[C@@H]1O [Example 30] | “++++” (<50 “++++”)
Cc1cc(-c2ccc(F)c(OC(F)(F)F)c2)ccc1[C@@H](O)[C@H]1O[C@H](CO)[C@@H](O)[C@H](O)[C@@H]1O [Example 31] | “+++” (50-200 “+++”)
COc1cc(OC)cc(-c2ccc([C@@H](O)[C@H]3O[C@H](CO)[C@@H](O)[C@H](O)[C@@H]3O)c(C)c2)c1 [Example 33] | “++++” (<50 “++++”)
COc1cc(-c2ccc([C@@H](O)[C@H]3O[C@H](CO)[C@@H](O)[C@H](O)[C@@H]3O)c(C)c2)cc(F)c1F [Example 34] | “++++” (<50 “++++”)
COc1c(F)cc(-c2ccc([C@@H](O)[C@H]3O[C@H](CO)[C@@H](O)[C@H](O)[C@@H]3O)c(C)c2)cc1F [Example 35] | “++++” (<50 “++++”)
Cc1cc(-c2cc(F)cc(OC(F)(F)F)c2)ccc1[C@@H](O)[C@H]1O[C@H](CO)[C@@H](O)[C@H](O)[C@@H]1O [Example 36] | “++++” (<50 “++++”)
Cc1cc(-c2cc(F)cc(F)c2)cc(F)c1[C@@H](O)[C@H]1O[C@H](CO)[C@@H](O)[C@H](O)[C@@H]1O [Example 37] | “++++” (<50 “++++”)
Cc1cc(-c2ccc(C3CC3)c(F)c2)ccc1[C@@H](O)[C@H]1O[C@H](CO)[C@@H](O)[C@H](O)[C@@H]1O [Example 38] | “+++” (50-200 “+++”)
COc1cc(-c2ccc([C@@H](O)[C@H]3O[C@H](CO)[C@@H](O)[C@H](O)[C@@H]3O)c(C)c2)cc(OC)c1F [Example 39] | “++++” (<50 “++++”)

SMILES | HAI titer EC > 90
Cc1cc(-c2ccc([C@@H](O)[C@H]3O[C@H](CO)[C@@H](O)[C@H](O)[C@@H]3O)c(C)c2)c(F)cc1Cl [Example 40] | “+++” (50-200 “+++”)
Cc1cc(-c2ccc(C(F)(F)F)c(Cl)c2)ccc1[C@@H](O)[C@H]1O[C@H](CO)[C@@H](O)[C@H](O)[C@@H]1O [Example 41] | “++++” (<50 “++++”)
Cc1cc(-c2ccc(C(F)(F)F)cc2F)ccc1[C@@H](O)[C@H]1O[C@H](CO)[C@@H](O)[C@H](O)[C@@H]1O [Example 42] | “+++” (50-200 “+++”)
Cc1cc(-c2cc(OC(F)(F)F)ccc2F)ccc1[C@@H](O)[C@H]1O[C@H](CO)[C@@H](O)[C@H](O)[C@@H]1O [Example 43] | “+++” (50-200 “+++”)
Cc1cc(-c2cc(Cl)ccc2F)ccc1[C@@H](O)[C@H]1O[C@H](CO)[C@@H](O)[C@H](O)[C@@H]1O [Example 44] | “+++” (50-200 “+++”)
Cc1cc(F)c(-c2ccc([C@@H](O)[C@H]3O[C@H](CO)[C@@H](O)[C@H](O)[C@@H]3O)c(C)c2)cc1F [Example 45] | “++++” (<50 “++++”)
Cc1cc(-c2cc(C(F)(F)F)ccc2F)ccc1[C@@H](O)[C@H]1O[C@H](CO)[C@@H](O)[C@H](O)[C@@H]1O [Example 46] | “+++” (50-200 “+++”)
Cc1cc(-c2cc(F)c(Cl)cc2F)ccc1[C@@H](O)[C@H]1O[C@H](CO)[C@@H](O)[C@H](O)[C@@H]1O [Example 47] | “++++” (<50 “++++”)
Cc1cc(-c2cc(Cl)c(F)cc2F)ccc1[C@@H](O)[C@H]1O[C@H](CO)[C@@H](O)[C@H](O)[C@@H]1O [Example 48] | “+++” (50-200 “+++”)
Cc1cc(-c2ccc(C(F)(F)F)c(F)c2F)ccc1[C@@H](O)[C@H]1O[C@H](CO)[C@@H](O)[C@H](O)[C@@H]1O [Example 49] | “+++” (50-200 “+++”)
Cc1cc(Cl)c(-c2ccc([C@@H](O)[C@H]3O[C@H](CO)[C@@H](O)[C@H](O)[C@@H]3O)c(C)c2)cc1F [Example 50] | “+++” (50-200 “+++”)
Cc1cc(-c2cc(F)cc(OC3CC3)c2)ccc1[C@@H](O)[C@H]1O[C@H](CO)[C@@H](O)[C@H](O)[C@@H]1O [Example 51] | “++++” (<50 “++++”)
OC[C@H]1O[C@H]([C@H](O)c2c(F)cc(-c3cc(F)cc(F)c3)cc2Cl)[C@@H](O)[C@@H](O)[C@@H]1O [Example 52] | “+++” (50-200 “+++”)
Cc1cc(-c2cc(F)c(C3CC3)c(F)c2)ccc1[C@@H](O)[C@H]1O[C@H](CO)[C@@H](O)[C@H](O)[C@@H]1O [Example 53] | “++++” (<50 “++++”)
Cc1cc(-c2cc(C3CC3)ccc2F)ccc1[C@@H](O)[C@H]1O[C@H](CO)[C@@H](O)[C@H](O)[C@@H]1O [Example 54] | “+++” (50-200 “+++”)
Cc1cc(-c2cc(Cl)ccc2OC(F)(F)F)ccc1[C@@H](O)[C@H]1O[C@H](CO)[C@@H](O)[C@H](O)[C@@H]1O [Example 55] | “+++” (50-200 “+++”)
Cc1cc(-c2cc(Cl)c(C3CC3)cc2F)ccc1[C@@H](O)[C@H]1O[C@H](CO)[C@@H](O)[C@H](O)[C@@H]1O [Example 56] | “+++” (50-200 “+++”)
Cc1ccc(-c2ccc([C@@H](O)[C@H]3O[C@H](CO)[C@@H](O)[C@H](O)[C@@H]3O)c(C)c2)cc1F [Example 57] | “+++” (50-200 “+++”)
COc1cc(F)cc(-c2ccc([C@@H](O)[C@H]3O[C@H](CO)[C@@H](O)[C@H](O)[C@@H]3O)c(C(F)(F)F)c2)c1 [Example 58] | “++++” (<50 “++++”)
OC[C@H]1O[C@H]([C@H](O)c2ccc(-c3cc(F)cc(C(F)(F)F)c3)cc2C(F)(F)F)[C@@H](O)[C@@H](O)[C@@H]1O [Example 59] | “++++” (<50 “++++”)
Cc1cc(F)cc(-c2ccc([C@@H](O)[C@H]3O[C@H](CO)[C@@H](O)[C@H](O)[C@@H]3O)c(C)c2)c1 [Example 60] | “+++” (50-200 “+++”)
Cc1cc(-c2cc(F)cc(C3CC3)c2)ccc1[C@@H](O)[C@H]1O[C@H](CO)[C@@H](O)[C@H](O)[C@@H]1O [Example 62] | “+++” (50-200 “+++”)
COc1cc(-c2ccc([C@@H](O)[C@H]3O[C@H](CO)[C@@H](O)[C@H](O)[C@@H]3O)c(C)c2)cc(F)c1C [Example 63] | “++++” (<50 “++++”)
COc1cc(C)cc(-c2ccc([C@@H](O)[C@H]3O[C@H](CO)[C@@H](O)[C@H](O)[C@@H]3O)c(C)c2)c1 [Example 65] | “+++” (50-200 “+++”)
Cc1cc(-c2ccc(C(F)(F)F)c(C)c2)ccc1[C@@H](O)[C@H]1O[C@H](CO)[C@@H](O)[C@H](O)[C@@H]1O [Example 66] | “++++” (<50 “++++”)
